These results are taken from patent US5474992A, “Method of treatment with pharmaceutical composition for renal disorder and a dialysis solution for extracorporeal hemodialysis” (Senju Pharmaceutical Co., Ltd., priority 1993, dated 1995).

Data set [1] is described as follows: Acute toxicity (LD50) in rats. The following applies: rat, in vivo. As for the experimental part:
The compound of this invention for use as the active ingredient of said pharmaceutical composition or dialysis solution is extremely low in toxicity and highly safe and, therefore, can be used advantageously for purposes of this invention [e.g. the LD50 values of L-ascorbyl DL-α-tocopheryl phosphate potassium (hereinafter referred to briefly as EPC-K)≥5 g/kg p.o. (rats) and≥100 mg/kg i.v. (rats)].

Data set [2] concerns rats with vitamin E deficiency. Nature of the data set: Effect on renal impairment in rats with vitamin E deficiency (DL-buthionine sulfoximine induced). In kind it is in vivo, male Wistar rats. The settings on record: 141 mg/5 ml/kg p.o. once daily for one week, vitamin E-deficient rats + BSO, mean ± standard error, n=5. As for the experimental part:
The effect of the compound of this invention, administered orally, on renal impairment in rats with vitamin E deficiency was evaluated.
Test substance: L-ascorbyl DL-α-tocopheryl phosphate potassium (abbreviation: EPC-K).
Method: Male Wistar rats were purchased from Japan Clea, Inc. at the age of 4 weeks and put on a vitamin E-deficient diet for 10 weeks before the experiment.
The rat model of renal impairment was constructed by administering 1 mmol/kg of DL-buthionine sulfoximine (abbreviation: BSO), a glutathione (abbreviation: GSH) synthesis inhibitor, intraperitoneally once a day for 3 consecutive days.
Five hours after the last administration of DL-buthionine sulfoximine (BSO), the blood was drawn from the lower abdominal aorta under pentobarbital anesthesia and the serum levels of creatinine, urea nitrogen (abbreviation: BUN) and lipid peroxide (abbreviation: LPO), which are indicators of renal function, were determined by Jaffe's method, urease-indophenol method, and Yagi's method, respectively.
The test substance EPC-K was administered orally in a dose of 141 mg/5 ml/kg once daily for one week until the blood sampling day. As a control, distilled water was used.

Data set [3] deals with adriamycin nephrosis in rats. Description: Effect on adriamycin nephrosis in rats. The following applies: 1 mg/kg, i.p. once daily, day 80, mean ± standard error, n=5 to 6. In kind it is in vivo, male SD rats. The method, then:
The effect of the compound of this Invention on adriamycin nephrosis in rats was evaluated.
Method: This study was conducted in male SD rats (body weight: about 180 g) purchased from Japan SLC. The rats were intravenously dosed with 7.5 mg/kg of adriamycin to induce renal impairment.
The test substance EPC-K was administered intraperitoneally once daily and the rat was sacrificed on day 80 for determination of biochemical parameters. Physiological saline was used as control.

Another data set deals with salt-sensitive rats. Description: Effect on salt-sensitive rats (NaCl-induced renal impairment). The data set is classed as in vivo, male Dahl S rats. The settings on record: mean ± standard error, n=4 to 6, * p < 0.0001, control 30.0 ± 2.9. The method, then:
The effect of the compound of this invention on salt-sensitive rats was investigated.
Method: Male Dahl S rats (salt-sensitive rats) were purchased from Seiwa Experimental Animal Institute and loaded with 8% aqueous solution of sodium chloride to induce renal impairment.
The test substance EPC-K was administered once daily for 4 weeks. As a control, distilled water was orally administered.

For data set [4], the system named is adenine nephrosis in rats. Description: Effect on adenine nephrosis in rats. The data set is classed as in vivo, male Wistar rats. The following applies: i.p. once a day, mean ± standard error, n=8 to 9; for Creatinine: control (saline) 1.95 ± 0.64; for BUN: control (saline) 98.4 ± 34.5. As for the experimental part: The effect of the compound of this invention on adenine nephrosis in rats was evaluated.
Method: Male Wistar rats, aged 7 weeks, were purchased from SLC and used.
The rats were put on a 0.5% adenine-containing diet for 30 days to induce adenine nephrosis.
The test substance EPC-K was intraperitoneally administered once a day. Physiological saline was used as control.

The subject of data set [5] is neutrophil-derived active oxygens formed due to the dialysis membrane. Nature of the data set: Chemiluminescence assay of scavenging effect on neutrophil-derived active oxygens formed due to the dialysis membrane. The data set is classed as cell-based, SD rat. The settings on record: PMMA membrane, MCLA; for Chemiluminescence photon count: mean ± standard deviation, n=5, blank test 42392 ± 12789. The method, then: The scavenging effect of the compound of this invention on the neutrophil-derived active oxygens formed due to the dialysis membrane was evaluated by the chemiluminescence assay.
An SD rat was intraperitoneally infused with 120 ml/kg of 1% casein-containing Krebs-Ringer bicarbonate buffer (Ca^2+ -free) and kept as it was for 15 to 18 hours. Then, ice-cooled phosphate buffered saline (Ca^2+ /Mg^2+ -free, briefly PBS) was infused into the peritoneal cavity and after massaging the abdomen, laparotomy was performed to collect the peritoneal fluid. This fluid was centrifuged (4° C.) at 150G for 5 minutes and the sediment was subjected to hemolysis treatment, washed with 2 portions of PBS and suspended in Hanks buffered saline (Ca^2+ /Mg^2+ -free; abbreviation: HBS) at a concentration of 5×10^6 cells/ml.
The hollow fiber of polymethyl methacrylate (PMMA) was taken out from the Filtrizer cartridge, rinsed and dried. The dried hollow fiber was milled in a mortar (to a particle diameter of about 20 to 100 μm) and suspended in HBS at a concentration of 100 mg/ml.
MCLA (2-methyl-6-[p-methoxyphenyl]-3,7,-dihydroimidazolo[1,2-a]pyrazin-3-one)(Cypridina luciferin analog; manufactured by Tokyo Kasei Kogyo Co., Ltd.) was dissolved in HBS at a concentration of 5 μM.
EPC-K was dissolved in HBS at final concentrations of 1 μM to 10 μM. To 100 μl of each solution were added 300 μl of the neutrophil suspension and 100 μl of the MCLA solution and the mixture was incubated at 37° for 10 minutes. Then, 20 μl of the PMMA suspension was added and the resulting MCLA-dependent chemiluminescence was quantitated in 5 replicates. From the photon count at maximal emission was subtracted the minimal count immediately following addition of the PMMA suspension to arrive at the chemiluminescence photon count (CPM). The count obtained with HBS (blank test) was compared with the count obtained with the drug and the percent inhibition (%) was calculated by means of the following equation. [formula]

A word on the LD50: it is the dose at which mortality reaches 50%. Low readings indicate a more toxic substance, high ones a less toxic substance. As a reminder, the inhibition is the drop in the measured response relative to a control, in per cent. Take `Cc1c(C)c2c(c(C)c1OP(=O)(O)OC1=C(O)[C@@H]([C@@H](O)CO)OC1=O)CCC(C)(CCCC(C)CCCC(C)CCCC(C)C)O2` (mixture of isomers) [EPC-K, L-ascorbyl DL-α-tocopheryl phosphate potassium]: the LD50 was no less than 100 mg/kg in data set [1] (iv, i.v. (rats)) and no less than 5000 mg/kg in data set [1] (po, p.o. (rats)). In addition, the “Creatinine (serum)” value in data set [2] (* p < 0.05, distilled water 5.8 ± 0.2) was 2.0 ± 1.3 mg/dL. For the same molecule, the “BUN (serum)” value in data set [2] (** p < 0.01, distilled water 208.5 ± 17.7) was 62.5 ± 37.1 mg/dL. The “LPO (serum lipid peroxide)” value in data set [2] (distilled water 5.4 ± 0.9) turned out to be 3.8 ± 0.1 nmol/mL. For the same molecule, the BUN worked out at 18.2 ± 1.2 mg/dL in data set [3] (* p < 0.0001, control (saline) 23.5 ± 1.7); 15.6 ± 2.7 mg/dL in the data set with salt-sensitive rats (5 mg/kg, i.p. once daily for 4 weeks); 18.5 ± 2.1 mg/dL in the data set with salt-sensitive rats (141 mg/kg, p.o. once daily for 4 weeks); 61.5 ± 13.2 mg/dL in data set [4] (5 mg/kg, * p < 0.05); 40.2 ± 5.2 mg/dL in data set [4] (10 mg/kg, ** p < 0.01). The Creatinine stood at 0.30 ± 0 mg/dL in data set [3] (control (saline) 0.50 ± 0.28); 1.14 ± 0.32 mg/dL in data set [4] (5 mg/kg, * p < 0.05); 0.73 ± 0.15 mg/dL in data set [4] (10 mg/kg, ** p < 0.01). Also, the LPO in data set [3] (control (saline) 2.5 ± 1.8) amounted to 1.4 ± 0.8 nmol/mL. Further, the Urinary protein in data set [3] (control (saline) 696 ± 710) was 119 ± 54 mg/day. Moreover, the Chemiluminescence photon count is on record as 32230 ± 6949 CPM in data set [5] (1 μM), 26800 ± 3057 CPM in data set [5] (3 μM) and 14518 ± 3648 CPM in data set [5] (10 μM). Also, the inhibition at 1 µM in data set [5] (Rattus norvegicus, 1 μM, versus blank test (HBS), read-out: Percent inhibition) was 24%. In addition, the inhibition at 3 µM in data set [5] (Rattus norvegicus, 3 μM, versus blank test (HBS), read-out: Percent inhibition) is 36.8%. Moreover, the inhibition at 10 µM in data set [5] (Rattus norvegicus, 10 μM, versus blank test (HBS), read-out: Percent inhibition) was found to be 65.8%.
